Activity calls are given as the source filed them. The rule behind the calls is not given here.
What was measured:
[1] = species: Homo sapiens; experiment: Selectivity index, ratio of EC50 for THRalpha (unknown origin) to EC50 for THRbeta (unknown origin)
[2] = Half life in cynomolgus monkey at 10 mg/kg, po measured up to 24 hrs by LC-MS/MS analysis; format: ADME, organism-based, Macaca fascicularis; conditions: in vivo
[3] = Half life in Sprague-Dawley rat at 10 mg/kg, po measured up to 24 hrs by LC-MS/MS analysis; format: ADME, organism-based; conditions: in vivo
[4] = Half life in Beagle dog at 10 mg/kg, po measured up to 24 hrs by LC-MS/MS analysis; format: ADME, organism-based, Canis lupus familiaris; conditions: in vivo
[5] = tested on: Mus musculus; experiment: Antifibrotic activity in CCl4-induced C57BL/6J mouse model of liver fibrosis assessed as reduction in liver fibrosis at 30 mg/kg, po via gavage administered once daily for 28 days by Sirius Red staining based histological analysis; format: functional, organism-based; conditions: time 28.0 day
[6] = tested on: Mus musculus; experiment: Anti-hepatosteatosis activity in C57BL/6J mouse model of high fat-induced obesity assessed as reduction in liver steatosis at 30 mg/kg, po via gavage administered once daily for 28 days by hematoxylin-eosin staining based histological analysis; format: functional, organism-based; conditions: time 28.0 day
[7] = tested on: Mus musculus; experiment: Agonist activity at THRbeta in C57BL/6J mouse model of NASH assessed as increase in Dio1 gene expression in liver at 30 mg/kg, po via gavage administered once daily for 28 days; format: functional, organism-based; conditions: time 28.0 day
[8] = Oral bioavailability in Sprague-Dawley rat at 2 mg/kg; format: ADME, organism-based; conditions: in vivo
[9] = Tmax in Sprague-Dawley rat at 3 mg/kg, ip; format: ADME, organism-based; conditions: in vivo
[10] = Dissociation constant, pKa of compound; format: physicochemical
[11] = tested on: Mus musculus; experiment: Agonist activity at THRbeta in C57BL/6J mouse model of NASH assessed as increase in CYP7A1 gene expression in liver at 30 mg/kg, po via gavage administered once daily for 28 days; format: functional, organism-based; conditions: time 28.0 day
[12] = Plasma clearance in Sprague-Dawley rat at 1 mg/kg, iv and 2 mg/kg, po; format: ADME, organism-based
[13] = species: Rattus norvegicus; experiment: Antihyperlipidemic activity in high cholesterol diet-induced Sprague-Dawley rat model of hypercholesterolemia assessed as reduction in serum total cholesterol level after 24 hrs; format: functional, organism-based
[14] = AUC (0 to 24 hrs) in C57BL/6J mouse at 30 mg/kg, po administered via gavage as single dose; format: ADME, organism-based; parameters: time < 24 hr, route oral, dose 30 mg/kg; conditions: in vivo
[15] = Volume of distribution at steady state in Sprague-Dawley rat at 1 mg/kg, iv and 2 mg/kg, po; format: ADME, organism-based; conditions: in vivo, read-out: Vdss
[16] = MRT in Sprague-Dawley rat at 3 mg/kg, ip; format: ADME, organism-based; conditions: in vivo

Compound | Ratio EC50 [1] | other results
CCC(O)c1cc(Oc2c(Cl)cc(NC(=O)c3noc(=O)[nH]3)cc2Cl)n[nH]c1=O (racemic) | 16.2 | 
CC(O)c1cc(Oc2c(Cl)cc(NC(=O)c3noc(=O)[nH]3)cc2Cl)n[nH]c1=O (racemic) | 16.5 | 
CC(C)(C)c1cc(Oc2c(Cl)cc(NC(=O)c3noc(=O)[nH]3)cc2Cl)n[nH]c1=O | 12.3 | 
CC(C)c1cc(C(=O)c2c(Cl)cc(NCc3noc(=O)[nH]3)cc2Cl)nn(C)c1=O | 0.8 | 
CC(C)(O)c1cc(Oc2c(Cl)cc(NC(=O)c3noc(=O)[nH]3)cc2Cl)n[nH]c1=O | 11.1 | 
CC(C)c1cc(Oc2c(Cl)cc(NCc3noc(=O)[nH]3)cc2Cl)n[nH]c1=O | 1.8 | 
CC(C)c1cc(Oc2c(Cl)cc(-n3nc(C#N)c(=O)[nH]c3=O)cc2Cl)n[nH]c1=O | 15 | 
CC(C)c1cc(Oc2c(Cl)cc(NCc3noc(=O)[nH]3)cc2Cl)nn(C)c1=O | 8.6 | 

Continued, in another order:

Ratio EC50 [1] | Compound | other results
0.2 | CC(C)c1cc(Oc2c(Cl)cc(NC(C)c3noc(=O)[nH]3)cc2Cl)nn(C)c1=O (racemic) | 
2.1 | Cc1cc(OCP(=O)(O)O)cc(C)c1Cc1ccc(O)c(C(C)C)c1 [MB07344] | half-life [2]: 6.5 h; half-life [3]: 9.3 h; half-life [4]: 10.2 h
14.5 | CC(C)c1cc(Cc2c(Cl)cc(NC(=O)c3noc(=O)[nH]3)cc2Cl)nn(C)c1=O | 
0.5 | CC(C)c1cc(Oc2c(Cl)cc(N(C)Cc3noc(=O)[nH]3)cc2Cl)nn(C)c1=O | 
6.1 | CC(C)c1cc(C(=O)c2c(Cl)cc(NC(=O)c3noc(=O)[nH]3)cc2Cl)nn(C)c1=O | 
14.1 | CC(C)c1cc(Oc2c(Cl)cc(NC(=O)c3noc(=O)[nH]3)cc2Cl)nn(C)c1=O | Activity [5]: Active; Activity [6]: Active; Activity [7]: Active; bioavailability [8]: 24%; Tmax [9]: 1 h; pKa [10]: 4.5; Activity [11]: Active; clearance [12]: 13 mL/min/kg; Activity [13]: Dose-dependent effect; AUC(0-t) at 24 h [14]: 17200 ng·h/mL; Vd [15]: 0.53 L/kg; MRT [16]: 1.8 h
1.7 | CC(C)c1cc(Cc2c(Cl)cc(NCc3noc(=O)[nH]3)cc2Cl)nn(C)c1=O | 
9.2 | CC(CO)c1cc(Oc2c(Cl)cc(NC(=O)c3noc(=O)[nH]3)cc2Cl)nn(C)c1=O (racemic) | 
21.6 | CC(C)c1cc(Oc2c(Cl)cc(NC(=O)c3noc(=O)[nH]3)cc2Cl)n[nH]c1=O | Activity [13]: Dose-dependent effect

From ChEMBL document CHEMBL4665733, “Selective thyroid hormone receptor β agonists with oxadiazolone acid isosteres” (Bioorg Med Chem Lett, 2020)
